In ChEMBL document CHEMBL3301562, “MMV Box screening against Plasmodium falciparum protein kinases and aminoacyl tRNA synthetases”:

How the values were obtained:
Format in all cases: functional
[1] = target: T1, Cdk-related protein kinase 6 (Plasmodium falciparum, UniProt O77239); assay: Final concentrations were 1.5 uM ATP, 5 mM MnCl2, and 15 ug/ml PK6 in a buffer of 100 mM Tris-HCl (pH 7.5). 50 ug/mL MBP was provided as the substrate; 10 uM staurosporine was used as a control inhibitor. Incubation time was 3 hours and 40 minutes.The catalytic activity of each kinase was considered proportional to ATP consumed, as determined from measurements of residual [ATP] with the luciferase-based reagent Kinase-Glo (Promega) following incubation. Luminescence (proportional to residual [ATP]) was measured on the plate readers FLx800 (BioTek Instruments, Winooski, VT, USA) and MicroBeta2.
T1 sequence (O77239 whole entry): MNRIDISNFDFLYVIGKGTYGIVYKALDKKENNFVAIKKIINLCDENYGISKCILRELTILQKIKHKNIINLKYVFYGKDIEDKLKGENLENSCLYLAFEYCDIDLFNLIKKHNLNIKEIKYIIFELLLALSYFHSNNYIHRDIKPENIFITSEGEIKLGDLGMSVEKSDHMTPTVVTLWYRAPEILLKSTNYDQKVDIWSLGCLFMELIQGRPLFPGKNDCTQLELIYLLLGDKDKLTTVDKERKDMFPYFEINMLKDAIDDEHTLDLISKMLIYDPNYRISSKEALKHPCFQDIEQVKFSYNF

[2] = target: T2, Putative uncharacterized protein pk7 (Plasmodium falciparum, UniProt O96214); assay: Final concentrations were 1 uM ATP, 2 mM DTT, 20 mM MgCl2, 2 mM MnCl2, 0.01% BSA, and 6 ug/ml PK7, in a buffer of 20 mM Tris-HCl (pH 7.5). The enzyme itself was the only substrate present (since autophosphorylation occurs); 100 uM 1NA-PP1 was used as a control inhibitor. Incubation time was 3 hours.
T2 sequence (O96214 whole entry): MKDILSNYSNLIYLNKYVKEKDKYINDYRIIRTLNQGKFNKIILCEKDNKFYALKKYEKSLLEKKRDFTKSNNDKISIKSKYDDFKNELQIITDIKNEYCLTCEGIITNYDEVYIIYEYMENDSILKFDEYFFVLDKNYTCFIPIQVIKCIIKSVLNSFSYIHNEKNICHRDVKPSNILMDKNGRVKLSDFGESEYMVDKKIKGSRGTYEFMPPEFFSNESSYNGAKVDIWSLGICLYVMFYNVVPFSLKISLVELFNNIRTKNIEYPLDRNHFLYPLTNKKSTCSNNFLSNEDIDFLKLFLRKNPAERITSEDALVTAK

[3] = target: T3, Mitogen-activated protein kinase (Plasmodium falciparum, UniProt Q25917); assay: Final concentrations were 1 uM ATP, 0.5 mM DTT, 1 mM MgCl2, 0.5 mg/mL BSA, and 10 ug/ml MAP2 in a buffer of 50 mM HEPES (pH 7.0). 0.5 mg/mL histone III-S served as the substrate (13); 100 uM AMP-PNP, an ATP analog, was used as a control inhibitor. Incubation time was 4 hours.
T3 sequence (Q25917 whole entry): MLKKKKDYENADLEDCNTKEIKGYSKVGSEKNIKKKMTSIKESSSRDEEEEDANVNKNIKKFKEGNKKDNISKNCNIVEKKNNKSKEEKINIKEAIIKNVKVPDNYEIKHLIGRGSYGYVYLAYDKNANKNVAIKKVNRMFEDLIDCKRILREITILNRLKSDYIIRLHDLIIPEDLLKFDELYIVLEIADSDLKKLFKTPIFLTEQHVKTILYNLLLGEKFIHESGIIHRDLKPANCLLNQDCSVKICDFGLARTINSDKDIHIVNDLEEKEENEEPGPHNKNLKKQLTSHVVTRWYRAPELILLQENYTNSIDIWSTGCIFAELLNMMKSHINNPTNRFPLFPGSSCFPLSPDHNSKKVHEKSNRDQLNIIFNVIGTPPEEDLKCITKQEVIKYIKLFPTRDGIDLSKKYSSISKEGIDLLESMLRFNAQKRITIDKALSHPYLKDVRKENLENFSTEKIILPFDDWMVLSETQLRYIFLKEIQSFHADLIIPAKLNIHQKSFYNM

[4] = target: Calcium-dependent protein kinase 1 (Plasmodium falciparum, UniProt P62344); assay: MMV: CDPK1 Protein kinase inhibition assay using recombinant PfCDPK1, syntide 2 peptide substrate, ATP and KinaseGlo to measure % inhibition at 1 uM MMV box compound.
[5] = target: T4, Calcium-dependent protein kinase 4 (Plasmodium falciparum (isolate 3D7), UniProt Q8IBS5); assay: MMV: CDPK4 Protein kinase inhibition assay using recombinant PfCDPK4, syntide2 peptide substrate, ATP and KinaseGlo to measure % inhibition at 1 uM MMV box compound.
T4 sequence (Q8IBS5 whole entry): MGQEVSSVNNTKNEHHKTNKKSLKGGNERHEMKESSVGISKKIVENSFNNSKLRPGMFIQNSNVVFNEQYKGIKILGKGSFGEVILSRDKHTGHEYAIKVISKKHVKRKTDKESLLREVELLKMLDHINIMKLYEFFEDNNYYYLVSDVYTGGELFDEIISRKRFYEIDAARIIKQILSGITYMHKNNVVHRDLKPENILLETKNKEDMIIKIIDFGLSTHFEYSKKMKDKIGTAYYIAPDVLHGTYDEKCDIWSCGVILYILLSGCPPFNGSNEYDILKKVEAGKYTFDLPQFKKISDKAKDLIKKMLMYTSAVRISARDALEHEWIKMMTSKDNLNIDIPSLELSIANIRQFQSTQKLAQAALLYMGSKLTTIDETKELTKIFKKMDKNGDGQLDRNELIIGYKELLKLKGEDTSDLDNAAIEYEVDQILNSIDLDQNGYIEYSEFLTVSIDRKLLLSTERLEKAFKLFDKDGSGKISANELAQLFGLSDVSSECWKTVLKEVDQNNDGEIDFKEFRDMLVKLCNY

[6] = target: T5, Proline--tRNA ligase (Plasmodium falciparum (isolate 3D7), UniProt Q8I5R7); assay: MMV: ProRS recombinant Plasmodium falciparum Prolyl-tRNA-synthetase, assay with yeast tRNA, ATP, and proline and 3 uM MMV malaria box compound, assay read out with kinase glo as % inhibition.
T5 sequence (Q8I5R7 whole entry): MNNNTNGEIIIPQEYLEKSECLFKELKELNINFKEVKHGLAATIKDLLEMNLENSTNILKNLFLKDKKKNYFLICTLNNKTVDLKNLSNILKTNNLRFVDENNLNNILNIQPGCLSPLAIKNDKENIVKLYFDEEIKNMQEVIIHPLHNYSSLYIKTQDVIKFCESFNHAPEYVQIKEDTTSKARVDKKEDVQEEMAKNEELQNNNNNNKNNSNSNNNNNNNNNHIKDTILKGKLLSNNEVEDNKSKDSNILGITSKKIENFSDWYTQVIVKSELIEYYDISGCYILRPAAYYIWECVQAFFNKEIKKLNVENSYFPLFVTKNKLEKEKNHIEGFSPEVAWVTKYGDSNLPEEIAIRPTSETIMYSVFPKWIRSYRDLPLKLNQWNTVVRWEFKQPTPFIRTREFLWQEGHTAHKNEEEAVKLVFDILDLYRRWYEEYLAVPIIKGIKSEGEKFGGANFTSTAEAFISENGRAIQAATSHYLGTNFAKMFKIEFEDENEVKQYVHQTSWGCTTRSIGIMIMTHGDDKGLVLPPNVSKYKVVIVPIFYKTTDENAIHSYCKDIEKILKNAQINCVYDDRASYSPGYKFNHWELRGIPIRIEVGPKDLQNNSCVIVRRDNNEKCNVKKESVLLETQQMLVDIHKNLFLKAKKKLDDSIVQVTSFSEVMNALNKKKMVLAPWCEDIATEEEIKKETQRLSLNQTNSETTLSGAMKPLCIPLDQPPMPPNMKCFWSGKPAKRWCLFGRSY

[7] = target: Lysine--tRNA ligase (Plasmodium falciparum (isolate 3D7), UniProt Q8IDJ8); assay: MMV: KRS recombinant Plasmodium falciparum Lysyl-tRNA-synthetase, assay with yeast tRNA, ATP, and lysine and 3 uM MMV malaria box compound, assay read out with kinase glo as % inhibition.
Chain of Lysine--tRNA ligase (Q8IDJ8 whole entry): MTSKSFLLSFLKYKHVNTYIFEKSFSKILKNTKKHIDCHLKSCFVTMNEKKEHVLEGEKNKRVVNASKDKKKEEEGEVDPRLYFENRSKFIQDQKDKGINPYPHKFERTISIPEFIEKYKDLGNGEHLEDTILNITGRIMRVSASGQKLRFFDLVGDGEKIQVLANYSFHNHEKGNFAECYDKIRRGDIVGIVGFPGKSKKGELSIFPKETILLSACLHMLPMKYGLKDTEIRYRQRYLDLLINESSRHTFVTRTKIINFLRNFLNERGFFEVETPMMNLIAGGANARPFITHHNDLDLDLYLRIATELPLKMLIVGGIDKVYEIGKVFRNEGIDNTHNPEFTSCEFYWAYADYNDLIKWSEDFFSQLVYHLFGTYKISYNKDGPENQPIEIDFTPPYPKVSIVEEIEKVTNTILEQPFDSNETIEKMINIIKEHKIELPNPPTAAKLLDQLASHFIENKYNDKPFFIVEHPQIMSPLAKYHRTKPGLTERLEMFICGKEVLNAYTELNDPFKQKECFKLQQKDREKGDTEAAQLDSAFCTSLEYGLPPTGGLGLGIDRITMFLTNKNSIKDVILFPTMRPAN

Chain of Calcium-dependent protein kinase 1 (P62344 whole entry): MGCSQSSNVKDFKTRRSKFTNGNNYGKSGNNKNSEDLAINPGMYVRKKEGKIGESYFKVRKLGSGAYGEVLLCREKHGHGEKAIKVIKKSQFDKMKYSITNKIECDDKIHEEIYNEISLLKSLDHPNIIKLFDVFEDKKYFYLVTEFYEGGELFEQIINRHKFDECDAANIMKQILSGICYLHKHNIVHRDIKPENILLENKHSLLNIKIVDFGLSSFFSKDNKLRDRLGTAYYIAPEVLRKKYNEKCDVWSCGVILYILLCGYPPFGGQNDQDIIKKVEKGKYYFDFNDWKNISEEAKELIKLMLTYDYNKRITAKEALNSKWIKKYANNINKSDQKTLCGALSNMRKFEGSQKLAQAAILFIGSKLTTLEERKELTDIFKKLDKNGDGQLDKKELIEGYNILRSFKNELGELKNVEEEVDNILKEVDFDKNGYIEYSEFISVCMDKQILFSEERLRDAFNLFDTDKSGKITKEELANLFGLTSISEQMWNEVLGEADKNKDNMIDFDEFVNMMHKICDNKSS

Row | SMILES | IC50 [1] [nM] | IC50 [2] [nM] | IC50 [3] [nM] | IC50 [4] [nM] | IC50 [5] [nM] | IC50 [6] [nM] | IC50 [7] [nM]
1 | COc1cccc(Nc2nc(NCCO)c3ccccc3n2)c1 | > 1000 | > 1000 | > 1000 | > 1000 | > 1000 | > 2500 | > 2500
2 | Cc1ccc(-c2cc(C(=O)Nc3ccc(S(=O)(=O)N4CCCCC4)cc3)[nH]n2)c(O)c1 | > 1000 | > 1000 | > 1000 | > 1000 | > 1000 | > 2500 | > 2500
3 | COc1ccc(N2CCN(C(CNC(=O)C3CCCCC3)c3ccc4c(c3)OCO4)CC2)cc1 (configuration not stated) | > 1000 | > 1000 | > 1000 | > 1000 | > 1000 | > 2500 | > 2500
4 | Cn1c(=O)c2cc(C(=O)NCCCN3CCCCCC3)sc2c2ccccc21 | > 1000 | > 1000 | > 1000 | > 1000 | > 1000 | > 2500 | > 2500
5 | COc1ccc(CCN2CCC(CN(C)Cc3cnn(-c4ccccc4)c3)CC2)cc1 | > 1000 | > 1000 | > 1000 | > 1000 | > 1000 | > 2500 | > 2500
6 | O=C(NC(c1ccccc1)c1ccc2cccnc2c1O)c1ccccc1 (configuration not stated) | > 1000 | > 1000 | > 1000 | > 1000 | > 1000 | > 2500 | > 2500
7 | CCOc1cc(Br)c(C(C)NC(=O)c2cccc(OC)c2)cc1OCC (configuration not stated) | > 1000 | > 1000 | > 1000 | > 1000 | > 1000 | > 2500 | > 2500
8 | CCOc1cc(Cl)c(C(C)NC(=O)c2cccc(OC)c2)cc1OCC (configuration not stated) | > 1000 | > 1000 | > 1000 | > 1000 | > 1000 | > 2500 | > 2500
9 | Cc1ccc(Cl)cc1N1CCN(CCCNC(=O)C2CCN(c3nc4ccccc4[nH]3)CC2)CC1 | > 1000 | > 1000 | > 1000 | > 1000 | > 1000 | > 2500 | > 2500
10 | Cc1ccc(CSCc2ccc(C(=O)NC3CC3)o2)cc1 | > 1000 | > 1000 | > 1000 | > 1000 | > 1000 | > 2500 | > 2500
11 | O=C(Nc1ccc(CN2CCOCC2)cc1)c1ccc(-c2ccc(Br)cc2)o1 | > 1000 | > 1000 | > 1000 | > 1000 | > 1000 | > 2500 | > 2500
12 | CC(=O)NCCc1nc2ccccc2n1Cc1ccc(C(C)C)cc1 | > 1000 | > 1000 | > 1000 | > 1000 | > 1000 | > 2500 | > 2500
13 | CCCC(c1nnnn1C1CCCCC1)N1CCN(C(=O)c2ccco2)CC1 (configuration not stated) | > 1000 | > 1000 | > 1000 | > 1000 | > 1000 | > 2500 | > 2500
14 | COc1cccc(-c2nn(C)c3sc(C(=O)NCCN4CCN(c5ccccc5F)CC4)cc23)c1 | > 1000 | > 1000 | > 1000 | > 1000 | > 1000 | > 2500 | > 2500
15 | Cc1ccc(CN2CCC(C(=O)Nc3ccc(-c4cc5ccccc5[nH]4)cc3)CC2)o1 | > 1000 | > 1000 | > 1000 | > 1000 | > 1000 | > 2500 | > 2500
16 | Cc1cc(C)c2nc(N3CCC(C(=O)NCCCN4CCC(N5CCCCC5)CC4)CC3)sc2c1 | > 1000 | > 1000 | > 1000 | > 1000 | > 1000 | > 2500 | > 2500
17 | COc1ccccc1CNC(=O)C1c2ccccc2C(=O)N(CC(C)C)C1c1cccs1 (configuration not stated) | > 1000 | > 1000 | > 1000 | > 1000 | > 1000 | > 2500 | > 2500
18 | O=C(Nc1ccc(F)c(Cl)c1)Nc1ccc(Cl)c(Cl)c1 | > 1000 | > 1000 | > 1000 | > 1000 | > 1000 | > 2500 | > 2500
19 | CCCc1c(C)nc2ccccc2c1O | > 1000 | > 1000 | > 1000 | > 1000 | > 1000 | > 2500 | > 2500
20 | CCOc1c(Cl)cc(CNC(C)C(O)c2ccccc2)cc1OC (configuration not stated) | > 1000 | > 1000 | > 1000 | > 1000 | > 1000 | > 2500 | > 2500
21 | CN1c2ccccc2N(C)C1c1ccc2c(c1)OCO2 | > 1000 | > 1000 | > 1000 | > 1000 | > 1000 | > 2500 | > 2500
